Measurements as given in US6376497B1, “Antifungal azole derivatives having a fluorinated vinyl group and process for preparing same” (Korea Research Institute of Chemical Technology, priority 1999, dated 2002).

What was measured:
Assay in all cases: In vitro antifungal activity, microbroth dilution MIC
Type in all cases: cell-based
Conditions in all cases: RPMI-1640, 35° C., 4 to 48 hours, no growth observed
[1] = system: Trichophyton mentagrophytes B. 32663
Outline: (§1)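 Broth microdilution adapted from NCCLS M27, in RPMI-1640 with 0.165 M MOPS, pH 7.0. Yeast or mould inoculum at 2×10^3 CFU/ml was mixed 1:1 with DMSO-derived compound solutions (200 to 0.10 μg/ml before mixing) and incubated at 35 °C for 4 to 48 h. MIC was the concentration showing no growth.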

[2] = system: Aspergillus niger A. 16404
Outline: as §1

[3] = system: Cryptococcus neoformans IFM. 40092
Outline: as §1

[4] = system: Trichophyton mentagrophytes A. 9129
Outline: as §1

[5] = system: Candida albicans IFO. 1385
Outline: as §1

Candida krusei K. 11655 = system: Candida krusei K. 11655
Outline: as §1

[6] = system: Torulopsis glabrata B. 16205
Outline: as §1

[7] = system: Cryptococcus neoformans A. 34144
Outline: as §1

[8] = system: Aspergillus furnigatus B. 19119
Outline: as §1

[9] = system: Candida tropicalis A. 13803
Outline: as §1

[10] = system: Candida albicans A. 10231
Outline: as §1

[11] = system: Candida parapsitosis A. 7330
Outline: as §1

[12] = system: Candida pseudotropicalis K. 11658
Outline: as §1

Candida albicans C1-2 = system: Candida albicans C1-2
Outline: as §1

[13] = system: Cryptococcus neoformans B. 42419
Outline: as §1

Row | SMILES | Minimal inhibitory concentration(MIC), T. mentagrophytes B. 32663 [1] | Minimal inhibitory concentration(MIC), A. niger A. 16404 [2] | Minimal inhibitory concentration(MIC), Cry. neoformans IFM. 40092 [3] | Minimal inhibitory concentration(MIC), T. mentagrophytes A. 9129 [4] | Minimal inhibitory concentration(MIC), C. albicans IFO. 1385 [5] | Minimal inhibitory concentration(MIC), C. krusei K. 11655 (Candida krusei K. 11655) | Minimal inhibitory concentration(MIC), T. glabrata B. 16205 [6] | Minimal inhibitory concentration(MIC), Cry. neoformans A. 34144 [7] | Minimal inhibitory concentration(MIC), A furnigatus B. 19119 [8] | Minimal inhibitory concentration(MIC), C. tropicalis A. 13803 [9] | Minimal inhibitory concentration(MIC), C. albicans A. 10231 [10] | Minimal inhibitory concentration(MIC), C. parapsitosis A. 7330 [11] | Minimal inhibitory concentration(MIC), C. pseudotropicalis K. 11658 [12] | Minimal inhibitory concentration(MIC), C. albicans C1-2 (Candida albicans C1-2) | Minimal inhibitory concentration(MIC), Cry. neoformans B. 42419 [13]
1 | FC(Oc1ccc(OCC2COC(Cn3ccnc3)(c3ccc(F)cc3F)O2)cc1)=C(c1ccc(Oc2ccccc2)cc1)C(F)(F)F (mixture of isomers) [Ex. 113] | 12.5 µg/mL | >100 µg/mL | 0.39 µg/mL | 25.0 µg/mL | 3.13 µg/mL | >100 µg/mL | >100 µg/mL | 1.56 µg/mL | >100 µg/mL | >100 µg/mL | >100 µg/mL | >100 µg/mL | 100 µg/mL | >100 µg/mL | 3.13 µg/mL
2 | FC(Oc1ccc(OCC2COC(Cn3ccnc3)(c3ccc(F)cc3F)O2)cc1)=C(c1cccc(Cl)c1)C(F)(F)F (mixture of isomers) [Ex. 114] | 3.13 µg/mL | >100 µg/mL | 0.39 µg/mL | 6.25 µg/mL | 1.56 µg/mL | >100 µg/mL | 50.0 µg/mL | 1.56 µg/mL | >100 µg/mL | >100 µg/mL | 50.0 µg/mL | >100 µg/mL | >100 µg/mL | 25.0 µg/mL | 1.56 µg/mL
3 | FC(Oc1ccc(OCC2COC(Cn3ccnc3)(c3ccc(F)cc3F)O2)cc1)=C(c1cccc(F)c1)C(F)(F)F (mixture of isomers) [Ex. 115] | 3.13 µg/mL | >100 µg/mL | 0.39 µg/mL | 6.25 µg/mL | 1.56 µg/mL | >100 µg/mL | 50.0 µg/mL | 1.56 µg/mL | >100 µg/mL | 100 µg/mL | 25.0 µg/mL | >100 µg/mL | >100 µg/mL | 25.0 µg/mL | 3.13 µg/mL
4 | FC(Oc1ccc(OCC2COC(Cn3ccnc3)(c3ccc(F)cc3F)O2)cc1)=C(c1cc(Cl)cc(Cl)c1)C(F)(F)F (mixture of isomers) [Ex. 116] | 3.13 µg/mL | >100 µg/mL | 0.20 µg/mL | 6.25 µg/mL | 3.13 µg/mL | 100 µg/mL | 50.0 µg/mL | 1.56 µg/mL | >100 µg/mL | >100 µg/mL | 100 µg/mL | 100 µg/mL | 25.0 µg/mL | 100 µg/mL | 1.56 µg/mL
